The text below walks through data of the supplement of paper PMC11061612.

Assay in all cases: combination Emax (second highest fraction inhibited in the dose matrix, 72 h); higher = more inhibition; extreme values may be limits of the assay
Experiment [1] concerns A375 (Melanoma). Summed up: (§1)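 Cell lines in DMEM/F12 or RPMI with 10% FBS were plated in 1536-well plates, held 24 hours at 37°C, 5% CO2, then given two-drug dose matrices for 72 hours (DMSO typically 0.2%). Viability was read by CellTiter-Glo 2.0 luminescence and scaled as inhibition from 0 (vehicle wells) to 1 (blank wells). Combination Emax is the second-highest inhibition in the matrix; Bliss excess is observed combination effect minus expected EA + EB − EA·EB, EA and EB being single-agent effects.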

In experiment [2] the test system is C2BBe1 (Colorectal Carcinoma). In a few lines: as §1
The test system of experiment [3] is DK-MG (Glioblastoma). Summed up:
as §1

Experiment [4] deals with HT-144 (Melanoma). In a few lines: as §1
Experiment [5] relates to IGROV-1 (Ovarian Carcinoma). Summed up: as §1
The subject of experiment [6] is JJN-3 (Plasma Cell Myeloma). In a few lines:
as §1

For experiment [7], the system named is KNS-62 (Squamous Cell Lung Carcinoma). Summed up:
as §1

Experiment [8] relates to MDA-MB-175-VII (Breast Carcinoma). Summed up:
as §1

The subject of experiment [9] is MG-63 (Osteosarcoma). Summed up:
as §1

The subject of experiment [10] is NCI-H1435 (Non-Small Cell Lung Carcinoma). In a few lines: as §1
The subject of experiment [11] is NCI-H2009 (Lung Adenocarcinoma). Summed up:
as §1

Experiment [12] deals with NCI-H2023 (Non-Small Cell Lung Carcinoma). In a few lines: as §1
Experiment [13] deals with NCI-H2170 (Squamous Cell Lung Carcinoma). Summed up: as §1
In experiment [14] the test system is NCI-H2452 (Mesothelioma). In a few lines:
as §1

Experiment [15] deals with NCI-H835 (Other Solid Carcinomas). In a few lines:
as §1

Experiment [16] concerns OCI-M1 (Acute Myeloid Leukemia). In a few lines: as §1
Experiment [17] has as its system RPMI-8402 (T-Lymphoblastic Leukemia). In a few lines:
as §1

Experiment [18] concerns RS4-11 (B-Lymphoblastic Leukemia). Summed up: as §1
Experiment [19] deals with SCC90 (Head and Neck Carcinoma). In a few lines:
as §1

In experiment [20] the test system is TK (B-Cell Non-Hodgkin's Lymphoma). In a few lines: as §1

For `Cc1nc(Nc2ncc(C(=O)Nc3c(C)cccc3Cl)s2)cc(N2CCN(CCO)CC2)n1` [Dasatinib] + CC(=O)Nc1cccc(-n2c(=O)n(C3CC3)c(=O)c3c(Nc4ccc(I)cc4F)n(C)c(=O)c(C)c32)c1 [Trametinib] (first compound max 2 µM, 7x7, partner max 1 µM), the “combination Emax” value in experiment [1] came out at 0.794; in experiment [2] it was 0.692; in [3] it was 0.895; in experiment [4], 0.703; in experiment [5] it was 0.956; in experiment [6], 0.446. Further, the “combination Emax” value in [7] turned out to be 0.564; in [8] it was 0.513; in experiment [9], 0.734; in experiment [10] it was 0.42; in [11] it was 0.916; in experiment [12], 0.394. Besides, the “combination Emax” value in experiment [13] came out at 0.537; in experiment [14], 0.804; in experiment [15] it was 0; in experiment [16], 0.884; in experiment [17] it was 0.307; in experiment [18], 0.236. Besides, the “combination Emax” value in experiment [19] was determined as 0.846; in experiment [20], 0.145.
For `Cc1cc2ncnn2cc1Nc1ncc2c(n1)n(C1CCOCC1)c(=O)n2C` [AZD7648] + C[C@@H]1COCCN1C2=NC(=NC(=C2)C3(CC3)[S@](=N)(=O)C)C4=C5C=CNC5=NC=C4 [AZD6738] (first compound max 10 µM, 7x7, partner max 10 µM), the “combination Emax” value was 0.687 in [1]; 0.311 in [2]; 0.273 in experiment [3]; 0.753 in experiment [4]; 0.66 in experiment [5]; 0.694 in [6]. Also, the “combination Emax” value in experiment [7] worked out at 0.526; in [8], 0.341; in experiment [9], 0.503; in experiment [10], 0.217; in experiment [11], 0.339; in experiment [12], 0.796. Also, the “combination Emax” value in [13] was 0.657; in experiment [14] it was 0.525; in [15], 0.389; in experiment [16], 0.956; in [17], 0.988; in experiment [18], 0.871. Further, the “combination Emax” value in experiment [19] was 0.325; in experiment [20], 0.91.
On to `Cc1cc2ncnn2cc1Nc1ncc2c(n1)n(C1CCOCC1)c(=O)n2C` [AZD7648] + CCN(CCO)CCCOc1ccc2c(Nc3cc(CC(=O)Nc4cccc(F)c4)[nH]n3)ncnc2c1 [AZD2811] (first compound max 10 µM, 7x7, partner max 1 µM), for which the “combination Emax” value in [1] turned out to be 0.492; in [2], 0.196; in experiment [3] it was 0.273; in experiment [4], 0.327; in experiment [5] it was 0.566; in experiment [6], 0.308. The “combination Emax” value in experiment [7] worked out at 0.326; in experiment [8], 0.323; in experiment [9] it was 0.39; in experiment [10], 0.288; in experiment [11] it was 0.335; in experiment [12] it was 0.534. In addition, the “combination Emax” value in experiment [13] is 0.696; in [14], 0.497; in experiment [15] it was 0.36; in [16], 0.237; in experiment [17], 0.886; in experiment [18], 0.968. Also, the “combination Emax” value in experiment [19] was found to be 0.452; in [20] it was 0.281.
For `C[C@@H](c1ccc2nccn2c1)n1nnc2ncc(-c3cnn(C)c3)nc21` [Savolitinib] + CC1(C)CCC(CN2CCN(c3ccc(C(=O)NS(=O)(=O)c4ccc(NCC5CCOCC5)c([N+](=O)[O-])c4)c(Oc4cnc5[nH]ccc5c4)c3)CC2)=C(c2ccc(Cl)cc2)C1 [Venetoclax] (first compound max 1 µM, 7x7, partner max 1 µM), the “combination Emax” value in experiment [1] turned out to be 0.142; in experiment [2], 0.0814; in experiment [3], 0.352; in experiment [4], 0.117; in [5] it was 0.152; in experiment [6], 0.234. Also, the “combination Emax” value in experiment [7] is 0.0888; in experiment [8], 0.2; in experiment [9], 0.238; in experiment [10], 0.177; in experiment [11] it was 0.204; in experiment [12], 0.261. Also, the “combination Emax” value stood at 0.162 in experiment [13]; 0.174 in experiment [14]; 0.148 in [15]; 0.102 in [16]; 0.183 in experiment [17]; 1 in experiment [18]. The entries for the “combination Emax” value in [19] and in experiment [20] were 0.381 and 0.907, respectively.
As to `Cc1cc2ncnn2cc1Nc1ncc2c(n1)n(C1CCOCC1)c(=O)n2C` [AZD7648] + CN(C)CCCOc1ccc(-c2ccc3ncc4c(c3c2)n(C2CCOCC2)c(=O)n4C)cn1 [AZD0156] (first compound max 10 µM, 7x7, partner max 1 µM), the “combination Emax” value was determined as 0.269 in experiment [1]; 0.211 in [2]; 0.27 in [3]; 0.218 in experiment [4]; 0.584 in experiment [5]; 0.17 in experiment [6]. In addition, the “combination Emax” value in [7] amounted to 0.235; in experiment [8], 0.288; in [9], 0.331; in experiment [10], 0.226; in experiment [11] it was 0.14; in experiment [12] it was 0.586. The “combination Emax” value in [13] is 0.335; in [14], 0.42; in [15], 0.36; in [16], 0.173; in experiment [17], 0.382; in [18] it was 0.246. Also, the “combination Emax” value in experiment [19] was 0.353; in experiment [20] it was 0.204.
